Drawing on ChEMBL document CHEMBL3045660, “Regioselective synthesis of fraxinellone-based hydrazone derivatives as insecticidal agents” (2012), this text covers mortality for 27 molecules.

Each structure is given as a SMILES string.

Common to all, as to type: functional
Assay [1] relates to Mythimna separata. Put plainly: Insecticidal activity against pre-third-instar larvae of Mythimna separata (Oriental armyworm) in compound treated fresh corn leaves assessed as corrected mortality at 1 mg/ml measured after 10 days by leaf-dipping method. Particulars: 240 h.
The subject of assay [2] is Mythimna separata. Put plainly: Insecticidal activity against pre-third-instar larvae of Mythimna separata (Oriental armyworm) in compound treated fresh corn leaves assessed as corrected mortality at 1 mg/ml measured after 35 days by leaf-dipping method. Particulars: 840 h.
Assay [3] concerns Mythimna separata. As to the kind of experiment: Insecticidal activity against pre-third-instar larvae of Mythimna separata (Oriental armyworm) in compound treated fresh corn leaves assessed as corrected mortality at 1 mg/ml measured after 20 days by leaf-dipping method. Particulars: 480 h.

What is called mortality is the percentage killed. Take `COc1ccc(C(=O)N/N=C/C2=C3C(=O)O[C@@H](c4ccoc4)[C@]3(C)CCC2)cc1`: the mortality at 1000 µg/mL in assay [1] came to 37.9%; in assay [2], 50%; in assay [3], 44.4%.
Consider `C[C@@]12CCCC(/C=N/NC(=O)c3ccc([N+](=O)[O-])cc3[N+](=O)[O-])=C1C(=O)O[C@H]2c1ccoc1`, for which the mortality at 1000 µg/mL in assay [1] was determined as 31%; in assay [2], 53.8%; in assay [3], 40.7%.
In the case of `CC1=C2C(=O)O[C@@H](c3ccoc3)[C@]2(C)CC/C1=N\NC(=O)c1ccccc1`, the values for the mortality at 1000 µg/mL in assay [1], in assay [2] and in assay [3] were 58.6%, 76.9% and 63%, respectively.
In the same order, the values of `CC1=C2C(=O)O[C@@H](c3ccoc3)[C@]2(C)CC/C1=N\NC(=O)c1ccc([N+](=O)[O-])cc1` are 58.6%, 65.4% and 63%.
Regarding `CC1=C2C(=O)O[C@@H](c3ccoc3)[C@]2(C)CC/C1=N\NC(=O)c1cccc(Cl)c1`, the mortality at 1000 µg/mL in assay [1] was 58.6%; in assay [2], 69.2%; in assay [3] it was 59.3%.
As to `CC1=C2C(=O)O[C@@H](c3ccoc3)[C@]2(C)CC/C1=N\NC(=O)c1ccncc1`, the mortality at 1000 µg/mL in assay [1] was found to be 24.1%; in assay [2], 50%; in assay [3], 33.3%.
The like results for `CC1=C2C(=O)O[C@@H](c3ccoc3)[C@]2(C)CC/C1=N\NC(=O)c1cccs1` were, in that order, 20.7%, 38.5% and 29.6%.
In the same order, the values of `CC1=C2C(=O)O[C@@H](c3ccoc3)[C@]2(C)CC/C1=N\NC(=O)CC#N` are 34.5%, 61.5% and 33.3%.
The like results for `CC1=C2C(=O)O[C@@H](c3ccoc3)[C@]2(C)CC/C1=N\Nc1ccccc1` were, in that order, 10.3%, 46.2% and 22.2%.
Turning to `CC1=C2C(=O)O[C@@H](c3ccoc3)[C@]2(C)CC/C1=N\Nc1ccc([N+](=O)[O-])cc1`, the mortality at 1000 µg/mL in assay [1] stood at 34.5%; in assay [2], 53.8%; in assay [3] it was 40.7%.
As to `CC1=C2C(=O)O[C@@H](c3ccoc3)[C@]2(C)CC/C1=N\Nc1ccccc1[N+](=O)[O-]`, the mortality at 1000 µg/mL in assay [1] amounted to 24.1%; in assay [2], 46.2%; in assay [3] it was 33.3%.
The like results for `CC1=C2C(=O)O[C@@H](c3ccoc3)[C@]2(C)CC/C1=N\Nc1c(F)c(F)cc(F)c1F` were, in that order, 27.6%, 50% and 40.7%.
The like results for `C[C@@]12CCCC(/C=N/NC(=O)c3ccccc3)=C1C(=O)O[C@H]2c1ccoc1` were, in that order, 58.6%, 65.4% and 55.6%.
In the same order, the values of `C[C@@]12CCCC(/C=N/NC(=O)c3ccc([N+](=O)[O-])cc3)=C1C(=O)O[C@H]2c1ccoc1` are 37.9%, 61.5% and 48.1%.
Regarding `C[C@@]12CCCC(/C=N/NC(=O)c3cccc(Cl)c3)=C1C(=O)O[C@H]2c1ccoc1`, the mortality at 1000 µg/mL turned out to be 44.8% in assay [1], 53.8% in assay [2] and 40.7% in assay [3].
In the same order, the values of `C[C@@]12CCCC(/C=N/NC(=O)c3ccncc3)=C1C(=O)O[C@H]2c1ccoc1` are 55.2%, 73.1% and 66.7%.
Consider `C[C@@]12CCCC(/C=N/NC(=O)c3cccs3)=C1C(=O)O[C@H]2c1ccoc1`, for which the values for the mortality at 1000 µg/mL in assay [1], in assay [2] and in assay [3] were 24.1%, 34.6% and 29.6%, respectively.
In the same order, the values of `C[C@@]12CCCC(/C=N/NC(=O)CC#N)=C1C(=O)O[C@H]2c1ccoc1` are 55.2%, 69.2% and 66.7%.
Regarding `C[C@@]12CCCC(/C=N/Nc3ccccc3)=C1C(=O)O[C@H]2c1ccoc1`, the mortality at 1000 µg/mL in assay [1] amounted to 27.6%; in assay [2] it was 53.8%; in assay [3] it was 44.4%.
On to `C[C@@]12CCCC(/C=N/Nc3ccc([N+](=O)[O-])cc3)=C1C(=O)O[C@H]2c1ccoc1`, for which the mortality at 1000 µg/mL came out at 20.7% in assay [1], 38.5% in assay [2] and 14.8% in assay [3].
Consider `C[C@@]12CCCC(/C=N/Nc3ccccc3[N+](=O)[O-])=C1C(=O)O[C@H]2c1ccoc1`, for which the mortality at 1000 µg/mL in assay [1] stood at 13.8%; in assay [2], 50%; in assay [3], 37%.
For the molecule `C[C@@]12CCCC(/C=N/Nc3c(F)c(F)cc(F)c3F)=C1C(=O)O[C@H]2c1ccoc1`, the mortality at 1000 µg/mL in assay [1] is 37.9%; in assay [2], 61.5%; in assay [3] it was 40.7%.
The like results for `Cc1cccc(C(=O)N/N=C/C2=C3C(=O)O[C@@H](c4ccoc4)[C@]3(C)CCC2)c1` were, in that order, 41.4%, 53.8% and 44.4%.
In the case of `C[C@@]12CCCC(C=O)=C1C(=O)O[C@H]2c1ccoc1` [3-FORMYLFRAXINELLONE], the mortality at 1000 µg/mL stood at 17.2% in assay [1], 34.6% in assay [2] and 25.9% in assay [3].
In the same order, the values of `CC1=C2C(=O)O[C@@H](c3ccoc3)[C@]2(C)CCC1` [FRAXINELLONE] are 41.4%, 53.8% and 40.7%.
For `CC1=C2C(=O)O[C@@H](c3ccoc3)[C@]2(C)CCC1=O` [FRAXINELLONONE], the mortality at 1000 µg/mL in assay [1] was found to be 48.3%; in assay [2], 57.7%; in assay [3], 48.1%.
The like results for `CC(=O)O[C@@H]1C[C@H](O)[C@@]23CO[C@@H](O)[C@]1(C)[C@@H]2C[C@@H](O)[C@]1(C)[C@@H]3C(=O)[C@H](OC(C)=O)[C@@]2(C)[C@H](c3ccoc3)C[C@H]3O[C@]321` [TOOSENDANIN] were, in that order, 24.1%, 53.8% and 33.3%.
